# From patent publication US10544143B2, “4-azaindole compounds” (BRISTOL-MYERS SQUIBB COMPANY, priority 2017, dated 2020)
# Columns and labels:
# human TLR7 = human TLR7 (Homo sapiens (Human), UniProt Q9NYK1); assay: TLR7 inhibition reporter assay (HEK-Blue SEAP); format: cell-based; conditions: HEK-Blue cells overexpressing human TLR7, SEAP reporter, gardiquimod 7.5 μM
# Experimental: HEK-Blue™-cells (Invivogen) overexpressing human TLR7, TLR8 or TLR9 receptors were used for screening inhibitors of these receptors using an inducible SEAP (secreted embryonic alkaline phosphatase) reporter gene under the control of the IFN-β minimal promoter fused to five NF-κB and AP-1-binding sites. Briefly, cells are seeded into Greiner 384 well plates (15000 cells per well for TLR7, 20,000 for TLR8 and 25,000 for TLR9) and then treated with test compounds in DMSO to yield a final dose response concentration range of 0.05 nM-50 μM. After a 30 minute compound pre-treatment at room temperature, the cells are then stimulated with a TLR7 ligand (gardiquimod at a final concentration of 7.5 μM), TLR8 ligand (R848 at a final concentration of 15.9 μM) or TLR9 ligand (ODN2006 at a final concentration of 5 nM) to activate NF-κB and AP-1 which induce the production of SEAP. After a 22 hour incubation at 37° C., 5% CO2, SEAP levels are determined with the addition of HEK-Blue™ Detection reagent (Invivogen), a cell culture medium that allows for detection of SEAP, according to manufacturer's specifications.
# human TLR9 = human TLR9 (Homo sapiens (Human), UniProt Q9NR96); assay: TLR9 inhibition reporter assay (HEK-Blue SEAP); conditions: read-out: TLR9 IC50; HEK-Blue cells overexpressing human TLR9, SEAP reporter, ODN2006 5 nM;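 also: SEAP driven by an IFN-β minimal promoter with NF-κB and AP-1 sites, read after 22 h, compounds dosed 0.05 nM–50 µM, inhibition scaled between agonist plus DMSO and reference-inhibitor wells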
# Chain of human TLR9 (Q9NR96 26-1032): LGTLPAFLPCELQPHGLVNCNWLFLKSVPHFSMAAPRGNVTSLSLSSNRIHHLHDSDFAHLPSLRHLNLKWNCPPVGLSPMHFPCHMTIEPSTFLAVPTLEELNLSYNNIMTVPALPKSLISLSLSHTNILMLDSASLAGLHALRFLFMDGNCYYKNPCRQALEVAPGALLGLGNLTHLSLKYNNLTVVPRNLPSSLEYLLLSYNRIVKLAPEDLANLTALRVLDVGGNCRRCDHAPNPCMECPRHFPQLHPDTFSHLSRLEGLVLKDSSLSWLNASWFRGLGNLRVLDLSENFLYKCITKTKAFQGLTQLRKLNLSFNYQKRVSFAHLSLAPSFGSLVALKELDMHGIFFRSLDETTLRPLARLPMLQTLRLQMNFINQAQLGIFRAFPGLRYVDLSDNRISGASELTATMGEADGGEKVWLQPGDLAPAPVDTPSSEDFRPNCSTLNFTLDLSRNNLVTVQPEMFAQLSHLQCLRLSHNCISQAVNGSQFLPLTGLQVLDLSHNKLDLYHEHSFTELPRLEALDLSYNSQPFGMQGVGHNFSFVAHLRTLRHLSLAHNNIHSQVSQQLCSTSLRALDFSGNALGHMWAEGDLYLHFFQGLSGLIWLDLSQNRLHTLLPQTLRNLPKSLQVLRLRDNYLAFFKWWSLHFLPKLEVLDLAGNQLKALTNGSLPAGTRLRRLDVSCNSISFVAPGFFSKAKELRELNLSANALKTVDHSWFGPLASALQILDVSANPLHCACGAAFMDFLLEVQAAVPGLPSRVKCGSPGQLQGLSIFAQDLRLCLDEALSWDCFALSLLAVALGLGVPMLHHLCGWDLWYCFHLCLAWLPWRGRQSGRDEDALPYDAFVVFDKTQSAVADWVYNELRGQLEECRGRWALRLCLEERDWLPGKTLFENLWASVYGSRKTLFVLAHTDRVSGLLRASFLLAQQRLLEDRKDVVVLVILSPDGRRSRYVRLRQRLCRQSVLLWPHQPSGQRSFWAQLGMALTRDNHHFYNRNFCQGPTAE
# human TLR8 = human TLR8 (Homo sapiens (Human), UniProt Q9NR97); assay: TLR8 inhibition reporter assay (HEK-Blue SEAP); conditions: read-out: TLR8 IC50; HEK-Blue cells overexpressing human TLR8, SEAP reporter, R848 15.9 μM;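 also: SEAP driven by IFN-β minimal promoter carrying NF-κB and AP-1 sites, compounds dosed 0.05 nM to 50 µM for 22 h, inhibition scaled between agonist-plus-DMSO and reference-inhibitor wells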
# Chain of human TLR8 (Q9NR97 27-1041): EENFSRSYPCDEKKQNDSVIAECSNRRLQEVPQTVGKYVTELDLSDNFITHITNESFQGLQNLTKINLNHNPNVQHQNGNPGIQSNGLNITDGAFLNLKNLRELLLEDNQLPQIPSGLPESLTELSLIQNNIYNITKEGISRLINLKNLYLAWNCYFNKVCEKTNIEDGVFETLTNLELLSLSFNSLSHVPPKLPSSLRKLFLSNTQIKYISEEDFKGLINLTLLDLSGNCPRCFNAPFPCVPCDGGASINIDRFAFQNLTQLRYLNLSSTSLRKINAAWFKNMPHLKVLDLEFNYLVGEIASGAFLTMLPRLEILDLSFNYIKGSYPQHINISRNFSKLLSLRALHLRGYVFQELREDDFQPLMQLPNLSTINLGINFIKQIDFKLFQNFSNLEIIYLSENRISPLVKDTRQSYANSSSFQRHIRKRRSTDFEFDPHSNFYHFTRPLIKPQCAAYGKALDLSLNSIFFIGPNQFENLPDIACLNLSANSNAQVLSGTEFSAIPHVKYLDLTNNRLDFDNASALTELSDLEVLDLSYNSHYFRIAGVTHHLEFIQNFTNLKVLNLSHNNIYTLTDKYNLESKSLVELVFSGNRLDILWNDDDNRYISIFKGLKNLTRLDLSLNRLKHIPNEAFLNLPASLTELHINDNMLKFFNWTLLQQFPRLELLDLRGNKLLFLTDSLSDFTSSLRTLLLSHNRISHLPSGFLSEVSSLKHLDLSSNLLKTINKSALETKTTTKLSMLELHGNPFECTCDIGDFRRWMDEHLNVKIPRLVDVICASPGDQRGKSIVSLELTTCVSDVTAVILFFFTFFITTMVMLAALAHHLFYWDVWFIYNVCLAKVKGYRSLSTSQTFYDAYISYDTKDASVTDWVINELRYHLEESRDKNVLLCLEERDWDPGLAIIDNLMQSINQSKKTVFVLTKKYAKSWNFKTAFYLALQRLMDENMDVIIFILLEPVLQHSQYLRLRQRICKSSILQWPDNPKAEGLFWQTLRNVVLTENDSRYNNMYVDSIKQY
# Chain of human TLR7 (Q9NYK1 27-1049): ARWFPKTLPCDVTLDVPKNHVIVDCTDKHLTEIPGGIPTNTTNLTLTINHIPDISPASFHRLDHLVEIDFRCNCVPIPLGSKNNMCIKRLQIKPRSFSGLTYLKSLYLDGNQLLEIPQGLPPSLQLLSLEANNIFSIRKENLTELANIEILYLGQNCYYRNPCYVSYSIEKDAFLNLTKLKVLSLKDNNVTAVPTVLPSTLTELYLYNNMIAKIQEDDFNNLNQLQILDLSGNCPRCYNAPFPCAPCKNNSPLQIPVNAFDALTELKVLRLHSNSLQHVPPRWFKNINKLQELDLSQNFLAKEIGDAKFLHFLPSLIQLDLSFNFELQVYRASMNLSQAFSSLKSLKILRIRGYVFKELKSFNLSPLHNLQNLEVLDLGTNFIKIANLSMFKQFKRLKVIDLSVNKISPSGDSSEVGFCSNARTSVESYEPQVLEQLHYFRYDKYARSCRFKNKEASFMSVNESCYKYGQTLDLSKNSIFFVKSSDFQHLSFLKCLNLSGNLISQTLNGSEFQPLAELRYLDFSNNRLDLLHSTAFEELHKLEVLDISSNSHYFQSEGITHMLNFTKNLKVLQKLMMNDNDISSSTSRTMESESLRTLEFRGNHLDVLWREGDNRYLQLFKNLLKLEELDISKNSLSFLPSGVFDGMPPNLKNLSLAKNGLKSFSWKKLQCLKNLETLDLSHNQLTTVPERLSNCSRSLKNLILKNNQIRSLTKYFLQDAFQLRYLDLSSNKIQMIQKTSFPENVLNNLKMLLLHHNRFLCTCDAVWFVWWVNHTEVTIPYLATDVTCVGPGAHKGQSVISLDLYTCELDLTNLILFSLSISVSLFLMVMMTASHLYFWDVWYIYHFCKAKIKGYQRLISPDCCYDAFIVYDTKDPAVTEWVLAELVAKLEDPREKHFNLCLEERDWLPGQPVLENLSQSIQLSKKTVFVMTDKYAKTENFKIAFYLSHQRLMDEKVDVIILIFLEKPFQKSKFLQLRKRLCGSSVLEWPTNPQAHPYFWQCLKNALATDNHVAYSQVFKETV
SMILES,IC50 (human TLR7) [nM],IC50 (human TLR9) [nM],IC50 (human TLR8) [nM]
COc1cc(-c2[nH]c3cc(F)c(C4CCN(CC(=O)N(C)C)CC4)nc3c2C(C)C)cn2ncnc12 [Example 583],0.32,1550,5.1
COc1cc(-c2[nH]c3cc(C)c(C4CCN(CC(=O)N(C)C)CC4)nc3c2C(C)C)cn2ncnc12 [Example 584],0.24,2010,29
"COc1cc(-c2[nH]c3ccc(OCC4CCN(C)CC4)nc3c2C(C)C)cn2ncnc12 [Example 590, 6-(3-isopropyl-5-((1-methylpiperidin-4-yl)methoxy)-1H-pyrrolo[3,2-b]pyridin-2-yl)-8-methoxy-[1,2,4]triazolo[1,5-a]pyridine]",3,3550,4.7
"COc1cc(-c2[nH]c3ccc(OCC4CCN(C5CCOCC5)CC4)nc3c2C(C)C)cn2ncnc12 [Example 591, 6-(3-isopropyl-5-((1-(tetrahydro-2H-pyran-4-yl)piperidin-4-yl)methoxy)-1H-pyrrolo[3,2-b]pyridin-2-yl)-8-methoxy-[1,2,4]triazolo[1,5-a]pyridine]",4.8,2850,7.7
"COc1cc(-c2[nH]c3ccc(OCC4CN(C(C)C)C4)nc3c2C(C)C)cn2ncnc12 [Example 592, 6-(3-isopropyl-5-((1-isopropylazetidin-3-yl)methoxy)-1H-pyrrolo[3,2-b]pyridin-2-yl)-8-methoxy-[1,2,4]triazolo[1,5-a]pyridine]",2.9,2240,7.4
"Cc1cc(-c2[nH]c3ccc(OC4CCN(C)CC4)nc3c2C(C)C)cn2ncnc12 [Example 594, 6-(3-isopropyl-5-((1-methylpiperidin-4-yl)oxy)-1H-pyrrolo[3,2-b]pyridin-2-yl)-8-methyl-[1,2,4]triazolo[1,5-a]pyridine]",3.9,7910,16
"COc1ccc2[nH]c(-c3cc(OC)c4ncnn4c3)c(C(C)C)c2n1 [Example 601, 6-(3-isopropyl-5-methoxy-1H-pyrrolo[3,2-b]pyridin-2-yl)-8-methoxy-[1,2,4]triazolo[1,5-a] pyridine]",46,> 50000,46
"COc1cc(-c2[nH]c3ccc(OC4CCN(C(C)C)CC4)nc3c2C(C)C)cn2ncnc12 [Example 603, 6-(3-isopropyl-5-((1-isopropylpiperidin-4-yl)oxy)-1H-pyrrolo[3,2-b]pyridin-2-yl)-8-methoxy-[1,2,4]triazolo[1,5-a]pyridine]",1.5,1190,5.2
"COc1cc(-c2[nH]c3ccc(OC4CCN(C5CCOCC5)CC4)nc3c2C(C)C)cn2ncnc12 [Example 607, 6-(3-isopropyl-5-((1-(tetrahydro-2H-pyran-4-yl)piperidin-4-yl)oxy)-1H-pyrrolo[3,2-b]pyridin-2-yl)-8-methoxy-[1,2,4]triazolo[1,5-a]pyridine]",2.1,1140,2.6
"COc1cc(-c2[nH]c3ccc(OCC4CN(C)C4)nc3c2C(C)C)cn2ncnc12 [Example 608, 6-(3-isopropyl-5-((1-methylazetidin-3-yl)methoxy)-1H-pyrrolo[3,2-b]pyridin-2-yl)-8-methoxy-[1,2,4]triazolo[1,5-a]pyridine]",1.1,1710,6.1
"COc1cc(-c2[nH]c3ccc(OC4CCN(CC(=O)N(C)C)CC4)nc3c2C(C)C)cn2ncnc12 [Example 609, 2-(4-((3-isopropyl-2-(8-methoxy-[1,2,4]triazolo[1,5-a]pyridin-6-yl)-1H-pyrrolo[3,2-b]pyridin-5-yl)oxy)piperidin-1-yl)-N,N-dimethylacetamide]",2.6,2720,23
"COc1cc(-c2[nH]c3ccc(OC4CCC(N(C)C)CC4)nc3c2C(C)C)cn2ncnc12 (stereo not drawn) [Example 610, 4-((3-isopropyl-2-(8-methoxy-[1,2,4]triazolo[1,5-a]pyridin-6-yl)-1H-pyrrolo[3,2-b]pyridin-5-yl)oxy)-N,N-dimethylcyclohexan-1-amine]",1.5,1770,14
"CCCN(CCC)C1CCC(Oc2ccc3[nH]c(-c4cc(OC)c5ncnn5c4)c(C(C)C)c3n2)CC1 (stereo not drawn) [Example 611, 4-((3-isopropyl-2-(8-methoxy-[1,2,4]triazolo[1,5-a]pyridin-6-yl)-1H-pyrrolo[3,2-b]pyridin-5-yl)oxy)-N,N-dipropylcyclohexan-1-amine]",8.4,1930,17

# Continued by falling IC50 (human TLR7), values first:
IC50 (human TLR7) [nM],IC50 (human TLR9) [nM],IC50 (human TLR8) [nM],SMILES
122,10900,> 3120,"COc1cc(-c2[nH]c3ccc(OC4CN(C5CCOCC5)C4)nc3c2C(C)C)cn2ncnc12 [Example 595, 6-(3-isopropyl-5-((1-(tetrahydro-2H-pyran-4-yl)azetidin-3-yl)oxy)-1H-pyrrolo[3,2-b]pyridin-2-yl)-8-methoxy-[1,2,4]triazolo[1,5-a]pyridine]"
13,3200,67,"COc1cc(-c2[nH]c3ccc(OC4CN(C)C4)nc3c2C(C)C)cn2ncnc12 [Example 596, 6-(3-isopropyl-5-((1-methylazetidin-3-yl)oxy)-1H-pyrrolo[3,2-b]pyridin-2-yl)-8-methoxy-[1,2,4]triazolo[1,5-a]pyridine]"
13,3930,56,"COc1cc(-c2[nH]c3ccc(OC4CN(C(C)C)C4)nc3c2C(C)C)cn2ncnc12 [Example 612, 6-(3-isopropyl-5-((1-isopropylazetidin-3-yl)oxy)-1H-pyrrolo[3,2-b]pyridin-2-yl)-8-methoxy-[1,2,4]triazolo[1,5-a]pyridine]"
2.8,5910,2.5,"COc1cc(-c2[nH]c3ccc(OCC4CCN(CCS(C)(=O)=O)CC4)nc3c2C(C)C)cn2ncnc12 [Example 604, 6-(3-isopropyl-5-((1-(2-(methylsulfonyl)ethyl)piperidin-4-yl)methoxy)-1H-pyrrolo[3,2-b]pyridin-2-yl)-8-methoxy-[1,2,4]triazolo[1,5-a]pyridine]"
2.7,3050,4.8,COc1cc(-c2[nH]c3ccc(OCC4CN(CC(C)(C)O)C4)nc3c2C(C)C)cn2ncnc12 [Example 599]
2.3,16100,42,Cc1cc(-c2[nH]c3cc(F)c(C4CCN(C5COC5)CC4)nc3c2C(C)C)cn2ncnc12 [Example 588]
2.3,1710,3.9,"CCCN1CCC(COc2ccc3[nH]c(-c4cc(OC)c5ncnn5c4)c(C(C)C)c3n2)CC1 [Example 606, 6-(3-isopropyl-5-((1-propylpiperidin-4-yl)methoxy)-1H-pyrrolo[3,2-b]pyridin-2-yl)-8-methoxy-[1,2,4]triazolo[1,5-a]pyridine]"
1.4,974,2.6,"CCCN1CCC(Oc2ccc3[nH]c(-c4cc(OC)c5ncnn5c4)c(C(C)C)c3n2)CC1 [Example 593, 6-(3-isopropyl-5-((1-propylpiperidin-4-yl)oxy)-1H-pyrrolo[3,2-b]pyridin-2-yl)-8-methoxy-[1,2,4]triazolo[1,5-a]pyridine]"
1.3,918,1.2,"COc1cc(-c2[nH]c3ccc(OCC4CCN(CC(C)(C)O)CC4)nc3c2C(C)C)cn2ncnc12 [Example 597, 1-(4-(((3-isopropyl-2-(8-methoxy-[1,2,4]triazolo[1,5-a]pyridin-6-yl)-1H-pyrrolo[3,2-b]pyridin-5-yl)oxy)methyl)piperidin-1-yl)-2-methylpropan-2-ol]"
1.2,1430,6.8,"COc1cc(-c2[nH]c3ccc(OCC4CCN(CC(=O)N(C)C)CC4)nc3c2C(C)C)cn2ncnc12 [Example 602, 2-(4-(((3-isopropyl-2-(8-methoxy-[1,2,4]triazolo[1,5-a]pyridin-6-yl)-1H-pyrrolo[3,2-b]pyridin-5-yl)oxy)methyl)piperidin-1-yl)-N,N-dimethylacetamide]"
0.99,7460,12,Cc1cc(-c2[nH]c3cc(F)c(C4CCN(CCS(C)(=O)=O)CC4)nc3c2C(C)C)cn2ncnc12 [Example 582]
0.81,949,3.1,"COc1cc(-c2[nH]c3ccc(OCC4CCN(C(C)C)CC4)nc3c2C(C)C)cn2ncnc12 [Example 598, 6-(3-isopropyl-5-((1-isopropylpiperidin-4-yl)methoxy)-1H-pyrrolo[3,2-b]pyridin-2-yl)-8-methoxy-[1,2,4]triazolo[1,5-a]pyridine]"
0.75,2900,98,Cc1cc2[nH]c(-c3cc(C)c4ncnn4c3)c(C(C)C)c2nc1C1CCN(C(=O)CN(C)C)CC1 [Example 586]
0.75,2050,6.2,"COc1cc(-c2[nH]c3ccc(OC4CCN(C)CC4)nc3c2C(C)C)cn2ncnc12 [Example 600, 6-(3-isopropyl-5-((1-methylpiperidin-4-yl)oxy)-1H-pyrrolo[3,2-b]pyridin-2-yl)-8-methoxy-[1,2,4]triazolo[1,5-a]pyridine]"
0.46,1840,8.6,Cc1cc(-c2[nH]c3cc(F)c(C4CCN(C(=O)CN(C)C)CC4)nc3c2C(C)C)cn2ncnc12 [Example 585]
0.31,1410,27,COc1cc(-c2[nH]c3cc(C)c(C4CCN(CC(C)(C)O)CC4)nc3c2C(C)C)cn2ncnc12 [Example 587]
0.25,1060,62,COc1cc(-c2[nH]c3cc(C)c(C4CCN(C5CCOCC5)CC4)nc3c2C(C)C)cn2ncnc12 [Example 589]
